Article PMC3574188 (Bioorganic & medicinal chemistry, 2012)

Tests used:
[1] = target: T1, BoNT/A LC (1-425aa) (Clostridium botulinum, UniProt P0DPI0); assay type: biochemical
[2] = target: T1, BoNT/A LC (1-425aa); test: biochemical
[3] = test system: BoNT/A LC; details: cited from earlier work

T1 sequence (P0DPI0 1-425 limits assumed): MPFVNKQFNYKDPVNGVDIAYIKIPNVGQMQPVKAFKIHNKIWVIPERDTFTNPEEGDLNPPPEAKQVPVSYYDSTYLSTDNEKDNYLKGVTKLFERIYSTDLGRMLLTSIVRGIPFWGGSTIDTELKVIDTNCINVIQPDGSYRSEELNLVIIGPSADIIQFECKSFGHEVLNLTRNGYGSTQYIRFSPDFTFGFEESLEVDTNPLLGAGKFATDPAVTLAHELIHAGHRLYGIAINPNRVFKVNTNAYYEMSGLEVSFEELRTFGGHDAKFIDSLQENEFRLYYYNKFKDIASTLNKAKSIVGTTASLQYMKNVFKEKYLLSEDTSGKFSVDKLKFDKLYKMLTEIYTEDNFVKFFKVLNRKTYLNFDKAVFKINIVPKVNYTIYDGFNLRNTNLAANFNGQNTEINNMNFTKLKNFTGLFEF

Row | SMILES | inhibitory potency against BoNT/A LC relative to parent 3a [1] | fold lower IC50 value than parent 3a [1] | Ki [2] [nM] | fold improved potency (lower Ki) than parent lead 3a [2] [fold] | other results
1 | O=C(CC12CC3CC(CC(Cl)(C3)C1)C2)NO [Compound 3f] | comparable with the lead molecule |  |  |  | 
2 | O=C(CC12CC3CC(CC(Br)(C3)C1)C2)NO [Compound 3g] | comparable with the lead molecule |  |  |  | 
3 | O=C(CC12CC3CC(C1)CC(C(=O)O)(C3)C2)NO [Compound 3h] | no activity |  |  |  | 
4 | O=C(CC12CC3CC(C1)CC(c1ccc(Cl)cc1)(C3)C2)NO [Compound 3o] |  | ~ 30 fold | ~30 | 17 | 
5 | O=C(CC12CC3CC(C1)CC(c1ccc(Br)cc1)(C3)C2)NO [Compound 3p] |  | ~ 30 fold | ~30 | 17 | 
6 | O=C(C[C@@H](CCO)c1ccc(Cl)cc1Cl)NO [XI] |  |  |  |  | fold lower inhibition constant than the parent X [3]: ~2 fold
